Reference: US5691310A, “Methods of treatment using proANF peptides” (priority 1995, dated 1997)

Columns and labels:
porcine aorta = test: vasodilation of porcine aortic strips preconstricted with 0.3 micromolar phenylephrine; set-up: species or system pig
Procedure: 30 Kg pigs are sacrificed, and aortic strips are harvested. The strips are attached to F-60 transducer (Narco-BioSystems, Houston, Tex.) and attached to a physiography (Narco-BioSystems) while being submerged in a muscle tissue bath comprising a Krebs Ringer solution at 37° C., with 95% 02 -5% CO2, bubbled through the bath. Percentage vasodilation is measured versus time (as reported in FIG. 1) after preconstriction with 0.3 micromolar phenylephrine.

[1] = system: particulate guanylate cyclase; test: cyclic GMP / particulate guanylate cyclase activation in cultured smooth muscle cells and porcine aorta; assay type: cell-based; conditions: cultured smooth muscle cells
Munich-Wistar rats = test: rat clearance model (diuresis and salt excretion); assay type: in vivo
Procedure: The same three peptides and ANF from Example I are tested using the rat clearance model. Six control rats and six experimental Munich-Wistar rats, each weighing 150-200 grams, are used for each peptide, with catheters being placed in both jugular veins and in the femoral artery. The ureters are cannulated for simultaneous urine collections with femoral artery blood collections.
After inserting the catheters, a stabilization of one hour is allowed. A 10 μg/kg bolus of each of the respective human sequences of the peptides is given via the jugular vein to six experimental rats followed by a sustaining infusion of 0.1 μg/kg/min for 60 minutes. Blood and urine samples are collected at 20 minute intervals during this 60 minute infusion. In both the control and experimental animals, hematocrits and plasma sodium values remained at the same levels pre- and post-infusion while blood pressure decreased with each of these peptides (see Attachment B).

[2] = system: particulate guanylate cyclase; test: particulate guanylate cyclase activity in the kidney; assay type: biochemical; conditions: 1 μM; whole kidney homogenates, renal cortical and medullary membranes, isolated distal nephron
Procedure: Testing is also carried out to determine biologic effects of these peptides by measuring their effects on particulate guanylate activity in the kidney.

[3] = overcoming the negative ionotropic effect of Verapamil
healthy human subjects = test: infusion into healthy human subjects; assay type: in vivo; conditions: healthy humans
Procedure: Infusion of these peptides into healthy human subjects was performed as follows: Human pro-ANF 1-30, pro-ANF 31-67, and pro-ANF 79-98, and hANF (i.e., pro-ANF […], were synthesized by Peninsula Laboratories (Belmont, Calif.). High pressure liquid chromatography (HPLC) analysis was performed on a sample of each of the four peptides to ensure purity. The peptides were dissolved in a sterile 0.9% saline solution to a concentration of 100 μg/ml and dispensed in 2 and 5 ml aliquots into sealed sterile vials. At the time of dispensing, randomly selected vials were tested for pyrogens and sterility. Prior to labeling the vials, the actual peptide content of the dispensed solution were determined by direct radioimmunoassay to account for any possible absorption of the respective peptides to the walls of the vials. All vials were then stored at -80° C. until thawed for individual study.
Normal healthy subjects were chosen on the basis of age (between 20 and 50 years), physical examination and biochemical screenings. The subjects consumed their normal diets prior to testing. The subjects fasted overnight and were tested in the morning in the seated position. Intravenous catheters were placed bilaterally for the administration of pro-hANF 1-30, pro-hANF 31-67, pro-hANF 79-98 and hANF [pro-hANF 99-126] and for blood sampling. After completion of a 45-minute equilibration period, there were three 60-minute phases of the study: baseline, experimental infusion (60 minutes) and recovery (3 hours). The baseline phase consisted of two 30 minute urine collection periods, the experimental phase consisted of three 20 minute urine and plasma collection periods, and the recovery phase consisted of two 30 minute urine and plasma collection periods each hour for three hours post-infusion. Urine output was replaced on a milliliter per milliliter basis throughout the study by administering oral water or orange juice. Urine samples were obtained by voiding at the designated collection periods.
The 36 subjects were divided into 6 groups. One group (i.e., the control group) received a placebo infusion of 0.9% sodium chloride during the experimental infusion phase. […] The four remaining groups of six subjects each received human pro-hANF 1-30, pro-hANF 31-67, pro-hANF 79-98 and hANF. The four groups received the peptides by continuous infusion at the rate of 0.1 μg/kg per minute. The volume administered per hour during the experimental infusion phase was 10 ml for all four peptides and the placebo. All infusions were given by a constant-rate infusion pump, with the final concentrations of prohANFs adjusted for the subjects' body weight. The subjects heart rate and cuff blood pressure were taken at 5 minute intervals throughout the study. The excreted urine was analyzed for sodium concentration.

[4] = system: human subjects with class II New York Heart Association congestive heart failure; test: infusion into human subjects with congestive heart failure; assay type: in vivo
Procedure: Human proANF's 1-30, 31-67, 79-98, and 99-126 (i.e., ANF) were infused into human subjects with class II New York Heart Association congestive heart failure. An identical protocol to that used in example V where these peptides were infused into healthy human subjects was utilized. (See Attachment C for a detailed description of this protocol). The human subjects with congestive heart failure received an identical dose (0.1 μg/kg body wt/minute for 60 minutes) that the healthy human subjects received.

[5] = system: rats who have acute renal failure; test: blood urea nitrogen in rats with acute renal failure; assay type: in vivo, rat; conditions: over three days
From the text: FIG. 6. ProANF 31-67 (i.e., vessel dilator) prevents the rise in blood urea nitrogen (BUN) in rats who have acute renal failure.

[6] = system: renal medullary Na+-K+-ATPase; test: inhibition of renal medullary Na+-K+-ATPase activity; assay type: biochemical; conditions: 10^-11 M
[7] = congestive heart failure, 0.1 μg/kg body wt/minute

With “H-EVVPPQVLSEPNEEAGAALSPLPEVPPWTGEVSPAQR-OH [proANF 31-67, H-Glu-Val-Val-Pro-Pro-Gln-Val-Leu-Ser-Glu-Pro-Asn-Glu-Glu-Ala-Gly-Ala-Ala- Leu-Ser-Pro-Leu-Pro-Glu-Val-Pro-Pro-Trp-Thr-Gly-Glu-Val-Ser-Pro-Ala-Gln-Arg-OH]” the “increase in cyclic GMP levels over baseline levels” value (porcine aorta; associated with vasodilation of porcine aorta) was “four-to-five”, the vasodilation (porcine aorta; porcine aorta) was “cause vasodilation” and the “cyclic GMP levels” value [1] was “increase cyclic GMP levels”. The “UNa V, urinary sodium excretion rate” value (Munich-Wistar rats; period A, control period (before peptide)) was 144.08 ± 56.75 μeq-min^-1 -g kidney wt^-1, the “UNa V, urinary sodium excretion rate” value (Munich-Wistar rats; period B, 1st 60min experimental period, 10 μg/kg bolus then 0.1 μg/kg/min) was 1,057.68 ± 371.69 μeq-min^-1 -g kidney wt^-1 and the “UNa V, urinary sodium excretion rate” value (Munich-Wistar rats; period C, 2nd 60min experimental period) was 1,077.63 ± 306.10 μeq-min^-1 -g kidney wt^-1. For the same substance, the “particulate guanylate cyclase activity” value [2] was “enhance particulate guanylate cyclase”, the “negative ionotropic (slowing heartbeat) effect of Verapamil” value [3] was “can overcome the negative ionotropic (slowing heartbeat) effect” and the “increase of urine flow” value (healthy human subjects) was 4-12 fold. The “urine volume / urine flow (in words)” value (healthy human subjects; 100 ng/kg body wt per minute for 1 hour i.v.) was “increase in urine volume”, the “sodium excretion compared to baseline (in words)” value (healthy human subjects; 100 ng/kg body wt per minute for 60 minutes) was “significantly (P<0.05) increased sodium excretion” and the “systolic and diastolic blood pressures” value (healthy human subjects; 100 ng/kg/min i.v. for 60 minutes) was “decreasing systolic and diastolic blood pressures”. The “urine output at 3 hours after stopping the infusion relative to pre-infusion values” ([4]; congestive heart failure) was 10 fold, the “diuretic properties (in words)” value ([4]; congestive heart failure patients) was “stronger diuretic properties than ANF” and the “urine output in 20 minutes of infusion” value [4, 7] was “doubled”. For the same substance, the “urine output increase at the end of the 60 minute infusion” value [4, 7] was 7 fold, the “urine output per 30 minute period” value ([4]; congestive heart failure, 3 hours after stopping the infusion (pre-infusion 30 mls)) was 320 mls and the “increase of sodium excretion” value ([4]; human subjects with congestive heart failure) was “three-to-eight”. The “time after stopping the infusion for which diuresis / urine flow is still significantly (P<0.01) elevated” value ([4]; humans with congestive heart failure) was “at least 3 hours”, the “rise in blood urea nitrogen (BUN)” value [5] was “completely blocked the increase in BUN” and the “inhibition of renal medullary Na+-K+-ATPase activity” value [6] was “Inhibition of renal medullary Na+-K+-ATPase activity”.
